Data: patent US20240316051A1, “A PHARMACEUTICAL COMBINATION AND USE THEREOF” (Ascentage Pharma (Suzhou) Co., Ltd., priority 2021, published 2024)

What was measured:
Format in all cases: in vivo, mice
[1] = tested on: BAP1 mut mesothelioma PDX model; assay: BAP1 mut mesothelioma PDX model (Examples 15-17); settings: orally, once per day, 28 days
Procedure: (§1) A subcutaneous xenograft tumor model of human tumor immunodeficient mice was established by cell inoculation: tumor cells in logarithmic growth phase were collected, counted, resuspended in 1×PBS, and the cell suspension concentration was adjusted to 2.5-5×10^7/mL. The tumor cells were inoculated subcutaneously in the right side of immunodeficient mice with a 1 ml syringe ([…]), 5-10×10^6/0.2 mL/mouse. All animal experiments were strictly in accordance with the specifications for the use and management of experimental animals in GenePharma Co., Ltd. and Suzhou Ascentage Pharma Co., Ltd. The calculation of relevant parameters refers to the Chinese NMPA “Guidelines for Non-Clinical Research Techniques of Cytotoxic Anti-tumor Drugs”.
(§2) Animal body weight and tumor size were measured twice weekly during the experiment. The state of the animal and the presence or absence of death were observed every day. The growth of tumor and the effects of treatment on normal behavior of animals were monitored routinely, specifically involving experimental animal activity, feeding and drinking, weight gain or loss, eyes, clothing hair and other abnormalities. The deaths and clinical symptoms observed during the experiment were recorded in the raw data. All operations for administration and measurement of mouse body weight and tumor volume were performed in a clean bench. According to the requirements of the experimental protocol, after the end of the last administration, plasma and tumor tissues were collected, weighed and photographed. The plasma and tumor samples were frozen at −80° C. for ready-to-use.
(§3) Tumor volume (TV) is calculated as: TV=a×b^2/2, wherein a and b represent the length and width of the tumor to be measured, respectively.
(§4) The relative tumor volume (RTV) is calculated as: RTV=Vt/V1, wherein V1 is the tumor volume at the start of grouping and administration, and Vt is the tumor volume measured on the t day after administration.
(§5) The evaluation index of anti-tumor activity is the relative tumor proliferation rate T/C (%), and the calculation formula thereof is: relative tumor proliferation rate T/C (%)=(TRTV/CRTV)×100%, TRTV is the RTV of treatment group, CRTV is the RTV of solvent control group.
(§6) A dose of drug is considered to be severely toxic if the body weight of mouse is reduced by more than 20% or the number of drug-related deaths exceeds 20%.
(§7) According to the description by Clarke R., Issues in experimental design and endpoint analysis in the study of experimental cytotoxic agents in vivo in breast cancer and other models [J]. Breast Cancer Research & Treatment, 1997, 46(2-3): 255-278, synergy analysis was evaluated using the following formula: synergy factor=((A/C)×(B/C))/(AB/C); A=RTV value of drug A alone group; B=RTV value of drug B alone group; C=RTV value of the solvent control group, and AB=RTV value of the A and B combination group.
In this experiment, a BAP1 mut mesothelioma PDX model (Lide Biotech) was established to evaluate the anti-tumor effect of Compound 73. The dosing regimen was as follows: • Compound 73: 50 mg/kg, orally, once per day, for a total of 28 days; • Compound 73: 100 mg/kg, orally, once per day, for a total of 28 days;
In this experiment, a BAP1 mut mesothelioma PDX model (Lide Biotech) was established to evaluate the anti-tumor effect of Compound 73 in combination with Compound A-1. […]

[2] = tested on: NCI-H226 (BAP1mut, CDKN2Adel, FGFR high) xenograft; assay: NCI-H226 xenograft model (Examples 18-19); settings: Compound 73 50 mg/kg, orally, once per day, 35 days
Procedure: as §1
as §2, with “All operations for administration and measurement of mouse body weight and tumor volume were performed in a clean bench. According to the requirements of the experimental protocol, after the end of the last administration, plasma and tumor tissues were collected, weighed and photographed.” left out
as §3
The relative tumor volume (RTV) is calculated as: RTV=Vt/V1, wherein V1 is the tumor volume at the start of grouping and administration, and Vt is the tumor volume measured on the t day after administration. […]
Use of mRECIST (Gao et al., 2015) measured tumor responses included stable disease (SD), partial tumor regression (PR), and complete regression (CR), determined by comparing tumor volume change at day t to its baseline: tumor volume change (%)=(Vt−V1)/V1. […] For each time t, the average of tumor volume changes from t=1 to t was also calculated. […] Body weight of animals were monitored simultaneously. […]

[3] = tested on: NCI-H28(X1) (BAP1mut, UHRF1high, TP53WT, CDKN2Adel, FGFRlow, NF2WT) subcutaneous mesothelioma xenograft; assay: NCI-H28(X1) subcutaneous mesothelioma xenograft model (Example 23); settings: Compound C 50 mg/kg orally every other day, Compound 73 100 mg/kg orally once per day, 28 days, alone or combined
Procedure: as §1, §2, §3, §4
The evaluation index of anti-tumor activity is the relative tumor proliferation rate T/C (%), and the calculation formula thereof is: relative tumor proliferation rate T/C (%)=(TRTV/CRTV)×100%, TRTV is the RTV of treatment group, CRTV is the RTV of solvent control group. […]
as §7, with “group. […]” for “group.”

[4] = tested on: 22RV1 prostate xenograft; assay: Subcutaneous 22RV1 prostate xenograft model (Example 24)
Procedure: as §1, §2, §3, §4, §5
Change of body weight (%)=(measured body weight-body weight at the start of grouping)/body weight at the start of grouping×100%.
as §6, §7
In this experiment, subcutaneous 22RV1 prostate xenograft model was established to evaluate the anti-tumor effect of Compound 73 in combination with Compound C. The dosing regimen was as follows: • Compound C: 100 mg/kg, orally, every other day, for a total of 28 days; • Compound 73: 100 mg/kg, orally, once per day, for a total of 28 days;
The dosing regimen of each drug in the dosing regimen for the combination is the same as the dosing regimen for the single drug, for a total of 28 days.

## CC(C)N1Cc2cc(C(F)(F)F)ncc2-c2cnc(NCc3c(F)ccc4c3CCO4)n3cnc(c23)C1=O [Compound 73, 12-(((5-fluoro-2,3-dihydrobenzofuran-4-yl)methyl)amino)-4-isopropyl-7-(trifluoromethyl)-4,5-dihydro-3H-2,4,8,11,12a-pentaazabenzo[4,5]cycloocta[1,2,3-cd]inden-3-one]
[1]; Compound 73 50 mg/kg, end of study
  T/C (%): 69.7%
[1]; Compound 73 100 mg/kg, 100 mg/kg
  T/C (%): 60%
[1]; Compound 73 single agent, 50 and 100 mg/kg
  antitumor activity (in words): dose-dependent antitumor activity
[2]
  T/C (%): 48.6%
  tumor response (mRECIST): all the mice achieving stable disease (SD)
[3]
  T/C (%) @ D 29: 33.06%
[3]; mean ± SEM
  RTV@ D 29: 5.05 ± 0.41
[4]; 22RV1 xenograft, day 26, Compound 73 100 mg/kg orally once per day, Compound C 50 mg/kg (table) orally every other day
  RTV@ D 26: 7.91 ± 0.74
[4]; 22RV1 xenograft, day 26, Compound 73 100 mg/kg, Compound C 50 mg/kg (table)
  T/C(%) @ D 26: 49.89%
[4]; 22RV1 xenograft, day 29
  RTV@ D 29: 9.28 ± 0.61
[4]; 22RV1 xenograft, day 32
  RTV@ D 32: 11.53 ± 0.68
[4]; day 26, Compound C 100 mg/kg orally every other day, Compound 73 100 mg/kg orally once per day, alone or combined
  T/C value: 49.89%
